Measured values: publication PMC8385015, “Tumour-on-chip microfluidic platform for assessment of drug pharmacokinetics and treatment response” (Communications Biology, 2021)
Values joined by “and” are separate entries in the source; they are usually repeats but may differ in a detail not shown here. Equal values may be shown once.

What was measured:
Type in all cases: cell-based
SW620 spheroids [1] = assay: SW620 spheroid size/volume, microfluidic Ibidi chip mimicking mouse PK profile
Protocol: Spheroid images were taken for each experimental endpoint (day 7) using a Leica DMI4000B microscope (Leica Microsystems) with brightfield (BF), phase-contrast and fluorescence filters. Each flow line used two chips, one for viability assays and second for immunofluorescence. Both chips were imaged in BF prior spheroid recovery. Hardware embedded microscope scale has been translated in Fiji ImageJ to evaluate spheroid area/volume. The average size for SW620 spheroids was evaluated by measuring spheroid projection area in bright-field images, based on a macro script designed in an open-source imaging software (Fiji ImageJ) (Supplementary Method 1). Spheroid volume was evaluated following radius deduction from the measured area.

Ki67 = Ki67 immunofluorescence in SW620 spheroids, microfluidic chip
Source text: SN38 is a TOP1 inhibitor that that prevents relegation of the DNA strand by binding to TOP1–DNA complex and causes DNA double strand breaks (DSBs). Those DNA DSB lesions trigger activation of the ATM kinase for effective repair. Inhibition of ATM and consequent accumulation of unrepaired breaks leading to increased cell death provides the rationale for developing this combination for cancer treatment. […] Here, we tested whether different schedules lead to different activation of pharmacodynamic markers that are associated with DNA DSB damage, apoptosis and cell proliferation. The γ-H2AX associated foci accumulate in cells exposed to DBS inducing agents[18],[19]. These foci can be detected by immunostaining to determine their, size and morphology. However, spheroid imaging using a 20x objective on a CV7000 confocal microscope cannot accurately explore foci morphology, so we introduced customised ImageJ macros (described in “Methods” section, Supplementary Fig. 2 and Supplementary Method 1) to quantitate positive cells within a spheroid. The same method was applied to quantitate CC3-positive (apoptotic) cells, while normalisation by spheroid area was not required for Ki67, as this biomarker is present in all proliferating cells. […]
Total Hoechst area represents a parameter used for normalization within biomarker quantitation. […]

SW620 spheroids [2] = assay: SW620 spheroid viability (CellTiterGlo 3D), microfluidic Ibidi chip
Source text: The tested schedules were designed to recapitulate mouse plasma PK profiles from similar schedules used in in vivo efficacy studies (Table 1) with a desire to reverse translate in vivo data and to evaluate the predictive ability of our microfluidic chip setup. […] We investigated changes in the spheroid volume, as well as viability using the CellTiterGlo assay. To evaluate whether our system could also be used to monitor treatment impact on pharmacodynamic biomarkers, we collected individual spheroids at the end of the treatment period and performed immunofluorescence analysis for γH2AX (DNA double strand break marker), cleaved caspase 3 (apoptosis) and Ki67 (proliferation marker), as detailed in “Methods” section and Supplementary Fig. 2. Each treatment condition was repeated at least three times and measurements for each condition were pooled from at least six spheroid replicates.
To mimic in vivo anti-cancer drugs PK profile at a constant flow rate, an 8-point concentration scale for specific durations was used. Each drug was delivered at a specific concentration, for a specific amount of time, consistent with the average concentration for the same durations in vivo, on a 24-h step schedule.
Each compound concentration/timing represented an average of the corresponding in vivo plasma values, measured by mass spectrometry (Supplementary Methods 4 and 5).
Spheroid viability assessment used a metabolic method (CellTiterGlo 3D, G9681, Promega) by measuring luminescence units expressed by individually recovered spheroids. Each chip bottom polymer film was cut using a scalpel and spheroids were individually collected and transferred in 25 µL media to the wells of a half area 96-well plate (1/2 AreaPlate-96, white, 6002290, Perkin-Elmer). CellTiterGlo vial was allowed to thaw (1 h, room temperature) and 25 µL reagent were added to each spheroid well. Plates were lidded with black sealing tape (Nunc, 731-0750, VWR) and placed on and orbital shaker for 40′. Luminescence levels were measured using a SpectraMax i3X (Molecular Devices, USA).

CCc1c2c(nc3ccc(O)cc13)-c1cc3c(c(=O)n1C2)COC(=O)[C@]3(O)CC [SN38]
spheroid size at day 6, fold increase in size over day 1 (SW620 spheroids [1]; Microfluidic Ibidi chip, PK-profile exposure, 6 days, single spheroids (Fig 2c raw data)): 2.9097 and 2.688 and 2.723 and 2.5658
spheroid volume as percentage of untreated control (SW620 spheroids [1]; microfluidic chip, SN38 mono (1d), day 7): 55%
Ki67 positive area (Ki67; Mono SN38, day 7, single spheroids): 3.88E+07 and 4.54E+07 and 3.33E+07 and 4.06E+07 and 4.69E+07
decrease in proliferation (Ki67) compared to control (Ki67; SN38 monotherapy, day 7): about 20%
spheroid viability (SW620 spheroids [2]; Microfluidic Ibidi chip, 6 days, CellTiterGlo, replicates (Fig 2d raw data), unit not given): 62.9 and 51.36 and 50.85 and 54.46 and 62.33 and 64.07 (2×)
spheroid viability (SW620 spheroids [2]; microfluidic chip, SN38 mono (1d), day 7, single spheroids): 6192690 RLU and 5479774 RLU and 8813513 RLU and 7953995 RLU and 8522809 RLU and 9260029 RLU and 5533818 RLU and 5710166 RLU
reduction in viability (SW620 spheroids [2]; microfluidic, dosed to mimic in vivo PK profile, 6 days): ~ 40%
